Bounds are passed on as bounds.

T1 sequence (O15264 whole entry): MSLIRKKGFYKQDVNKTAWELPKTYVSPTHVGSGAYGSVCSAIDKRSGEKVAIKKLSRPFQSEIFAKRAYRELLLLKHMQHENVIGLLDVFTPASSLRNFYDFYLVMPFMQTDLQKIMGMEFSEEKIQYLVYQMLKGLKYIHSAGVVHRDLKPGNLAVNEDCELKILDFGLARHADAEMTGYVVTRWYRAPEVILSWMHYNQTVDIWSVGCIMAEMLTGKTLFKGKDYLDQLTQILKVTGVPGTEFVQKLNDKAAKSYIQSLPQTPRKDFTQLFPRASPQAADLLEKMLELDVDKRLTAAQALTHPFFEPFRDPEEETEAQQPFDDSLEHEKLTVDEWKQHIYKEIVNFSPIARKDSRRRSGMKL

One assay concerns the target T1, MAPK13 (Homo sapiens (Human), UniProt O15264). Kind of assay: biochemical.
Details: not given
The compound `Cc1ccc(-n2nc(C3(C)COC3)cc2NC(=O)Nc2ncc(CCc3ccncc3)s2)cc1` [Compound 271] had an IC50 of 250 to 1000 nM.
Same read-out and setting: as for `Cc1ccc(-n2nc(C(C)(C)C)cc2NC(=O)Nc2ncc(CCc3ccnc(NC(=O)OCc4ccccc4)c3)s2)cc1` [Compound 277, [4-(2-{2-[3-(5-tert-Butyl-2-p-tolyl-2H-pyrazol-3-yl)-ureido]-thiazol-5-yl}-ethyl)-pyridin-2-yl]-carbamic acid benzyl ester], the figure is 250 to 1000 nM.
On to `Cc1ccc(-n2nc(C(C)(C)CO)cc2NC(=O)Nc2ccc(Oc3ccncc3)cc2F)cc1` [Compound 279, 1-[2-Fluoro-4-(pyridin-4-yloxy)-phenyl]-3-[5-(2-hydroxy-1,1-dimethyl-ethyl)-2-p-tolyl-2H-pyrazol-3-yl]-urea], for which the IC50 lay in the range of 250 to 1000 nM.
Still for that read-out and setting: the result for `Cc1ccc(-n2nc(C(C)(C)CO)cc2NC(=O)Nc2ccc(Oc3ccncc3)cc2)cc1` [Compound 280, 1-[5-(2-Hydroxy-1,1-dimethyl-ethyl)-2-p-tolyl-2H-pyrazol-3-yl]-3-[4-(pyridin-4-yloxy)-phenyl]-urea] reads 250 to 1000 nM.
Still for that read-out and setting: the result for `COC(=O)Nc1cc(CCc2ccc(NC(=O)Nc3cc(C(C)(C)C)nn3CC3CC3)c(F)c2)ccn1` [Compound 316, [4-(2-{4-[3-(5-tet-Butyl-2-cyclopropylmethyl-2H-pyrazol-3-yl)-ureido]-3-fluoro-phenyl}-ethyl)-pyridin-2-yl]-carbamic acid methyl ester] reads 250 to 1000 nM; that for `CC(C)(C)c1cc(NC(=O)Nc2ncc(CCc3ccnc(N)c3)s2)no1` [Compound 365, 1-{5-[2-(2-Amine-pyridin-4-yl)-ethyl]-thiazol-2-yl}-3-(5-tert-butyl-isoxazol-3-yl)-urea], 250 to 1000 nM.
Turning to `CC(C)(C)c1cc(NC(=O)Nc2ncc(CCc3ccnc(N)c3)s2)[nH]n1` [Compound 367, 1-{5-[2-(2-Ainino-pyridin-4-yl)-ethyl]-thiazol-2-yl}-3-(5-tert-butyl-2H-pyrazol-3-yl)-urea], the IC50 was 250 to 1000 nM.
The same measure, in the same setting: as for `Cn1nc(C(C)(C)C)cc1NC(=O)Nc1ccc(CCc2ccnc(NC(=O)C3CC3)c2)cc1F` [Compound 373, Cyclopropanecarboxylic acid [4-(2-{4-[3-(5-tert-butyl-2-methyl-2H-pyrazol-3-yl)-ureido]-3-fluoro-phenyl}-ethyl)-pyridin-2-yl]-amide], the figure is 250 to 1000 nM; as for `CC(=O)Nc1cc(CCc2ccc(NC(=O)Nc3cc(C(C)(C)C)nn3-c3ccc(F)cc3)c(F)c2)ccn1` [Compound 379, N-{4-[2-(4-{3-[5-tert-Butyl-2-(4-fluoro-phenyl)-2H-pyrazol-3-yl]-ureido}-3-fluoro-phenyl)-ethyl]-pyridin-2-yl}-acetamide], 250 to 1000 nM; as for `CC(C)(C)c1cc(NC(=O)Nc2ncc(CCc3ccncc3)s2)on1` [Compound 386, 1-(3-tert-Butyl-isoxazol-5-yl)-3-[5-(2-pyridin-4-yl-ethyl)-thiazol-2-yl]-urea], 250 to 1000 nM.
On the same count and under the same terms, as for `CC(C)(C)c1cc(NC(=O)Nc2ncc(CCc3ccncc3)s2)no1` [Compound 387, 1-(5-tert-Butyl-isoxazol-3-yl)-3-[5-(2-pyridin-4-yl-ethyl)-thiazol-2-yl]-urea], the figure is 250 to 1000 nM.
The same measure, in the same setting: as for `CC(=O)Nc1cc(Oc2ccc(NC(=O)Nc3cc(C(C)(C)C)nn3CC3CC3)c(F)c2)ccn1` [Compound 393, N-(4-{4-[3-(5-tert-Butyl-2-cyclopropylmethyl-2H-pyrazol-3-yl)-ureido]-3-fluoro-phenoxy}-pyridin-2-yl)-acetamide], the figure is under 250 nM.
The compound `CC(=O)Nc1cc(COc2ccc(NC(=O)Nc3cc([Si](C)(C)C)ccc3F)c(F)c2)ccn1` [Compound 405, N-(4-{3-fluoro-4-[3-(2-fluoro-trimethylsilanyl-phenyl)-ureido]-phenoxymethyl}-pyridin-2-yl)-acetamide] gave an IC50 of 250 to 1000 nM.
On the same count and under the same terms, as for `CC(=O)Nc1cc(COc2ccc(NC(=O)Nc3cc(C(C)(C)C)nn3CC3CC3)c(F)c2)ccn1` [Compound 413, N-(4-{4-[3-(5-tert-Butyl-2-cyclopropylmethyl-2H-pyrazol-3-yl)-ureido]-3-fluoro-phenoxymethyl}-pyridin-2-yl)-acetamide], the figure is 250 to 1000 nM.
On the same count and under the same terms, the result for `CC(=O)Nc1cc(COc2ccc(NC(=O)Nc3cc(C(C)(C)C)ccc3Cl)c(F)c2)ccn1` [Compound 414, N-(4-{4-[3-(5-tert-Butyl-2-chloro-phenyl)-ureido]-3-fluoro-phenoxymethyl}-pyridin-2-yl)-acetamide] reads 250 to 1000 nM.

A further assay relates to MUC5AC mucin formation in IL-13-stimulated hTEC.
Assay: not given
Details: not given
Turning to `CCOC(=O)Nc1cc(CCc2cnc(NC(=O)Nc3cc(C(C)(C)C)n[nH]3)s2)ccn1` [Compound 354, [4-(2-{2-[3-(5-tert-Butyl-2H-pyrazol-3-yl)-ureido]-thiazol-5-yl}-ethyl)-pyridin-2-yl]-carbamic acid ethyl ester], the MUC5AC production entry is on record as “marked attenuation”.
Still for that read-out and setting: as for `CC(=O)Nc1cc(Oc2ccc(NC(=O)Nc3cc(C4CC4)ccc3F)c(F)c2)ccn1` [Compound 397, N-(4-{4-[3-(5-Cyclopropyl-2-fluoro-pheny)-ureido]-3-fluoro-phenoxy}-pyridin-2-yl)-actamde], the entry is “marked attenuation”; as for `CC(=O)Nc1cc(CCc2cnc(NC(=O)Nc3cc(C4CC4)ccc3F)s2)ccn1` [Compound 398, N-[4-(2-{2-[3-(5-Cyclopropyl-2-fluoro-phenyl)-ureido]-thiazol-5-yl}-ethyl)-pyridin-2-yl]-acetamide], “marked attenuation”; as for `O=c1ncn2nc(Sc3ccc(F)cc3F)ccc2c1-c1c(Cl)cccc1Cl` [Compound 401, VX-745, reference compound], “no significant inhibition”.

For another assay, the target named is T1, MAPK13.
Assay: not given
Conditions: read-out: MAPK13 inhibition.
As for `CCOC(=O)Nc1cc(CCc2cnc(NC(=O)Nc3cc(C(C)(C)C)n[nH]3)s2)ccn1` [Compound 354, [4-(2-{2-[3-(5-tert-Butyl-2H-pyrazol-3-yl)-ureido]-thiazol-5-yl}-ethyl)-pyridin-2-yl]-carbamic acid ethyl ester], the IC50 is under 250 nM.
As for `CC(=O)Nc1cc(Oc2ccc(NC(=O)Nc3cc(C4CC4)ccc3F)c(F)c2)ccn1` [Compound 397, N-(4-{4-[3-(5-Cyclopropyl-2-fluoro-pheny)-ureido]-3-fluoro-phenoxy}-pyridin-2-yl)-actamde], the IC50 is under 250 nM.
As to `CC(=O)Nc1cc(CCc2cnc(NC(=O)Nc3cc(C4CC4)ccc3F)s2)ccn1` [Compound 398, N-[4-(2-{2-[3-(5-Cyclopropyl-2-fluoro-phenyl)-ureido]-thiazol-5-yl}-ethyl)-pyridin-2-yl]-acetamide], the IC50 is under 250 nM.
